Experimental data from paper PMC3931646, “A Cyclic Nucleotide-Gated Channel Mutation Associated with Canine Daylight Blindness Provides Insight into a Role for the S2 Segment Tri-Asp motif in Channel Biogenesis” (PLoS ONE, 2014).

What was measured:
[1] = biological target: T1, cA3 (Canis lupus, UniProt A0A068LEV2); test: inside-out patch electrophysiology, current block; format: biochemical; conditions: 25 µM; channel block; 25 µM L-cis-diltiazem with 100 µM cGMP, -60 mV, 120 mM NaCl, EDTA/EGTA, pH 7.4, room temperature
T1 construct: gene CNGA3; full-length coding region cloned from canine retina, C-terminal YFP (pEYFP-N1, stop removed), tSA201 cells, homotetramer
T1 sequence (A0A068LEV2 1-708): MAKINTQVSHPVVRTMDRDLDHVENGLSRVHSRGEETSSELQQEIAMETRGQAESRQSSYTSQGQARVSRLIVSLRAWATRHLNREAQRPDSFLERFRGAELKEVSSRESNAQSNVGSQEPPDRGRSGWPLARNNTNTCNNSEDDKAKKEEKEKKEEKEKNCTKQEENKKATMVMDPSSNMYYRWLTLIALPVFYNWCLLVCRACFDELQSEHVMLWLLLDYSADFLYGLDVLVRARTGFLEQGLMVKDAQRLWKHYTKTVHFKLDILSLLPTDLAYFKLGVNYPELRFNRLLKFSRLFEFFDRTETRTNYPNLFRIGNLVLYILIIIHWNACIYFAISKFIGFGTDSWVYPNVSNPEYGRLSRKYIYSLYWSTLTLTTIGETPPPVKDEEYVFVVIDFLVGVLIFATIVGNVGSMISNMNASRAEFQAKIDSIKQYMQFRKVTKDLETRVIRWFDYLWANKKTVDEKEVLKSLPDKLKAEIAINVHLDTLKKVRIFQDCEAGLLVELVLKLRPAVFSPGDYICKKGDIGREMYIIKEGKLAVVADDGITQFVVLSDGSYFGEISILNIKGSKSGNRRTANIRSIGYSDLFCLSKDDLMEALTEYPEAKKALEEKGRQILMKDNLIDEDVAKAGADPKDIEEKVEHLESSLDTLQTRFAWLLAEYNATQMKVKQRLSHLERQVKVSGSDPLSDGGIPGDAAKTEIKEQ
Text: inside-out patch electrophysiology, current block on cA3

[2] = biological target: T2, cA3+ hB3 (Canis lupus familiaris; Homo sapiens, UniProt A0A068LEV2+Q9NQW8); test: inside-out patch electrophysiology, current block; format: biochemical; conditions: 25 µM; channel block; 25 µM L-cis-diltiazem with 100 µM cGMP, -60 mV, 120 mM NaCl, EDTA/EGTA, pH 7.4, room temperature
T2 construct: gene CNGA3; inter-species heterotetramer: canine CNGA3 with C-terminal YFP co-expressed with untagged human CNGB3 (pcDNA3.1) in tSA201 cells; stoichiometry debated (2:2 or 3:1)
T2 sequence (A0A068LEV2 1-708): T1 sequence (A0A068LEV2 1-708)
T2 sequence (Q9NQW8 1-809): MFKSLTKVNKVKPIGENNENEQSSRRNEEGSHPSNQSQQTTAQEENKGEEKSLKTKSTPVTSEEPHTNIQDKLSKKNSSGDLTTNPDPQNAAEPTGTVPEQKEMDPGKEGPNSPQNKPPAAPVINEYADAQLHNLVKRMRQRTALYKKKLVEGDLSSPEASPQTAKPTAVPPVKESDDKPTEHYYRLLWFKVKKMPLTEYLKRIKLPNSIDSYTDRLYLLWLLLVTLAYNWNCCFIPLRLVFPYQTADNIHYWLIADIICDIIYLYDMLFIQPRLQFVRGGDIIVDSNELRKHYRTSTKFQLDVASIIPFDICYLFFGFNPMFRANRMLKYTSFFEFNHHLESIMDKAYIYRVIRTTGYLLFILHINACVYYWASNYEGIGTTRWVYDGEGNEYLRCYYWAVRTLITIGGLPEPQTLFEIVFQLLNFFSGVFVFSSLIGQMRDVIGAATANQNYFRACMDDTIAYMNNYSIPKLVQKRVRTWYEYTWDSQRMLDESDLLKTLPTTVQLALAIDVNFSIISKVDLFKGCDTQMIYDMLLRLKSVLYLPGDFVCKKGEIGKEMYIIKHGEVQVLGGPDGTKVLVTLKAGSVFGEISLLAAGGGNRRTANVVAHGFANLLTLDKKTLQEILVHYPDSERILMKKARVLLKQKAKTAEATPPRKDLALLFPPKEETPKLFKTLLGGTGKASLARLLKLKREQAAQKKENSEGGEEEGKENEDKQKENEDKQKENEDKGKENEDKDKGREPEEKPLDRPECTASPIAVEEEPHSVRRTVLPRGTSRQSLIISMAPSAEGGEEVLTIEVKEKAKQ
Text: inside-out patch electrophysiology, current block on cA3+ hB3

SMILES: COc1ccc([C@H]2Sc3ccccc3N(CCN(C)C)C(=O)[C@H]2OC(C)=O)cc1 [L-cis-diltiazem]
- Idil/I [1]: 0.79±0.05
- Idil/I [2]: 0.40±0.02
